Article PMC11439681, “The identification of potent dual-target monopolar spindle 1 (MPS1) and histone deacetylase 8 (HDAC8) inhibitors through pharmacophore modeling, molecular docking, molecular dynamics simulations, and biological evaluation” (Frontiers in Pharmacology, 2024)

Key:
[1] = target: T1, MPS1 (Homo sapiens, UniProt P33981); experiment: In vitro MPS1 inhibitory assay; type: biochemical
T1 construct: purchased Abcam
T1 sequence (P33981 1-857): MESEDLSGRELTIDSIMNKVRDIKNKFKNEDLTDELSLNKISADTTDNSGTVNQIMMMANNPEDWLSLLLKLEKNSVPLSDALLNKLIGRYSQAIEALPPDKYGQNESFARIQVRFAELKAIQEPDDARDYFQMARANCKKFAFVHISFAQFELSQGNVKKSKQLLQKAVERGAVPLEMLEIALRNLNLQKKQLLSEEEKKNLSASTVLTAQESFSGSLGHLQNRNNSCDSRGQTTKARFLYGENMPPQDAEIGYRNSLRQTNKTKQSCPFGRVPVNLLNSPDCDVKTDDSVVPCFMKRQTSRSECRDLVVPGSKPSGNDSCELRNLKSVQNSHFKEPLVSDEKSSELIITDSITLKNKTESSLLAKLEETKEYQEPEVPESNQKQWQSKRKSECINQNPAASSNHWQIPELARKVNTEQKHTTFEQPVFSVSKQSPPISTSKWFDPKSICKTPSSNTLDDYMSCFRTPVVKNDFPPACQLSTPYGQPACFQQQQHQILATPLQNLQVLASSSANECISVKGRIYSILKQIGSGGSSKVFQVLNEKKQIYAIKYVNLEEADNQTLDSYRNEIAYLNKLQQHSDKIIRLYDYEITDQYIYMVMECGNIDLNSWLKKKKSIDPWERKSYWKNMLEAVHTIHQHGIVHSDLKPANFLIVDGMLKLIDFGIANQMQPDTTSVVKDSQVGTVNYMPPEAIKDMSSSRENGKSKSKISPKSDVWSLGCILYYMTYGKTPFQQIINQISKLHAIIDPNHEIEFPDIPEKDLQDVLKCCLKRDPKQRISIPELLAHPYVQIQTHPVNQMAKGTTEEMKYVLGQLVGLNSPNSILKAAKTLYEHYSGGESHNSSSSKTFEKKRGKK
Description: The methodology is as previously described ([Naud et al., 2013]). In brief, the experiment was conducted using 384-well black low-volume plates, which were loaded with MPS1 (concentration range of 3–12.5 nM), 5 μM fluorescence-labelled peptide (sequence: 5FAM-[…]-CONH2), 10 μM ATP, 1% (v/v) DMSO or the test compound (concentrations in 1% (v/v) DMSO ranged from 0.25 to 100 μM), and assay buffer. […]. The plate was read on a Caliper EZ reader II (PerkinElmer Life Sciences, Waltham, MA, United States). […]

[2] = test system: HepG2 liver cancer cells; experiment: MTT cytotoxicity assay, HepG2; type: cell-based; conditions: Homo sapiens, 72 h cell treatment
Description: The cells (5 × 10^4 cells/well) were incubated overnight in 96-well plates. A series of solutions containing varying concentrations of inhibitors were added and incubated at 37°C for a period of 72 h. Subsequently, the culture medium was removed, followed by a subsequent incubation of the cells with a 5 mg/mL MTT stock solution for 4 h. After centrifugation, the precipitate was solubilized in DMSO and gently shaken for 15 min. Finally, the absorbance measurement at 570 nm was completed using a microplate reader. Data analysis was performed using GraphPad Prism 6.0 software.

[3] = target: T2, HDAC8 (Homo sapiens, UniProt Q9BY41); experiment: In vitro HDAC8 inhibitory assay; type: biochemical; conditions: 90 min at 37°C
T2 construct: purchased Abcam
T2 sequence (Q9BY41 1-377): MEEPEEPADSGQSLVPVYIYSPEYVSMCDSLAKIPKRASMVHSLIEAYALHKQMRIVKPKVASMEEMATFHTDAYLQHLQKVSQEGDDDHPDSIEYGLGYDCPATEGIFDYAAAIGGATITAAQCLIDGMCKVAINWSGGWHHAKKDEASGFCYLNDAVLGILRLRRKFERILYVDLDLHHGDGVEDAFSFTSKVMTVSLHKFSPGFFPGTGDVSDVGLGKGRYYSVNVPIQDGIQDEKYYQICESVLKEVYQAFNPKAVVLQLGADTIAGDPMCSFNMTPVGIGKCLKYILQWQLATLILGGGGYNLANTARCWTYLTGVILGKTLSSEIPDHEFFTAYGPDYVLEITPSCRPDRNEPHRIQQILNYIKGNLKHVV
Description: Inhibition of HDAC8 was determined in 96-well plates. […] The assessment of fluorescence intensity was executed at 390 nm and 460 nm via a microplate reader.

SMILES | MPS1 (IC50, nM) ([1]; 10 μM ATP, 60 min, room temperature) | IC50 [1] [nM] | IC50 [2] [µM] | IC50 [3] [nM]
O=C(/C=C/c1cccc(S(=O)(=O)Nc2ccccc2)c1)NO [Belinostat, reference compound] | No inhibition |  |  | 
CC1=CC(c2cc3cnc(Nc4ccc(-c5cccc[n+]5/C=C/C(=O)NO)cc4Cl)cc3n2C(=O)OC(F)(F)F)C=N1 (stereo not shown) [MPH-1] |  | 9.38 ± 0.41 | 0.47 | 17.5 ± 2.32
COc1cc(-c2cncn2/C=C/C(=O)NO)ccc1Nc1cc2c(cn1)cc(C1C=CN=C1)n2C(=O)OC(C)(C)C (stereo not shown) [MPH-2] |  | 7.6 ± 0.35 | 0.32 | 8.15 ± 0.58
Cc1ncc(-c2ccc(Nc3cc4c(cn3)cc(C3C=NC(C(F)(F)F)=C3)n4C(=O)OC(C)(C)C)cc2)n1/C=C/C(=O)NO (stereo not shown) [MPH-3] |  | 13.2 ± 0.82 | 0.55 | 15.2 ± 1.94
COc1cc(-c2cnc(C)n2/C=C/C(=O)NO)ccc1Nc1cc2c(cn1)cc(C1C=CN=C1)n2C(=O)OC(F)(F)F (stereo not shown) [MPH-4] |  | 11.7 ± 0.95 | 0.41 | 13.5 ± 0.61
CC(C)(C)OC(=O)n1c(-c2cn[nH]c2C(F)F)cc2cnc(Nc3ccc(-c4cnc(C(F)(F)F)n4/C=C/C(=O)NO)cc3Cl)cc21 [MPH-6] |  | 10.8 ± 0.69 | 0.53 | 16.6 ± 2.06
